Laboratory results reported in PMC10850145, “Hormonal steroids induce multidrug resistance and stress response genes in Neisseria gonorrhoeae by binding to MtrR” (Nature Communications, 2024).
Several values for one entry are separate records, joined by “and”; a condition that tells them apart may be missing. Equal entries are not always repeated. Where two headings read alike, the source gives them in different places.

Test system: mtrC-lacZ expression
Type: cell-based, Neisseria gonorrhoeae
Settings: for Miller units, Mean: mtrCDE, ΔmtrR, left block Plate-4; for β-galactosidase activity, Miller units (single replicate) / β-galactosidase activity, individual replicate: mtrR WT in cis; for β-galactosidase activity, individual replicate: single replicate values, second (right) block; for Miller units: single well; for mtrC-lacZ β-galactosidase activity, Mean: left block of sheet (mtrCDE)
[1] = second block of sheet (c39-c76), ΔmtrR + mtrR R176E in trans, 6.25 µM
[2] = second block of sheet (c39-c76), ΔmtrR + mtrR R176E in trans, 12.5 µM
[3] = second block of sheet (c39-c76), ΔmtrR + mtrR R176E in trans, 25 µM
[4] = second block of sheet (c39-c76), ΔmtrR + mtrR R176E in trans, 50 µM

C[C@]12CC[C@H]3[C@@H](CCC4=CC(=O)CC[C@@]43C)[C@@H]1CC[C@@H]2O [Testosterone, testosterone]
Miller units, Mean (testosterone 50 µM): 284 Miller units
Miller units, Mean (testosterone 100 µM): 369 Miller units
β-galactosidase activity, Miller units (single replicate) (1 µM, first data set (c15-c36)): 149 Miller units and 125 Miller units and 138 Miller units and 141 Miller units
β-galactosidase activity, individual replicate (6.25 µM hormone): 103 Miller units and 88 Miller units
β-galactosidase activity, Miller units (single replicate) (6.25 µM, second data set (c53-c74)): 73 Miller units and 58 Miller units
β-galactosidase activity, Miller units (single replicate) (10 µM, first data set (c15-c36)): 251 Miller units and 213 Miller units and 245 Miller units and 230 Miller units
β-galactosidase activity, individual replicate (12.5 µM hormone): 126 Miller units
β-galactosidase activity, Miller units (single replicate) (12.5 µM, second data set (c53-c74)): 92 Miller units and 94 Miller units
β-galactosidase activity, individual replicate (25 µM hormone): 144 Miller units and 138 Miller units
β-galactosidase activity, Miller units (single replicate) (25 µM, first data set (c15-c36)): 283 Miller units and 251 Miller units and 242 Miller units and 281 Miller units
β-galactosidase activity, Miller units (single replicate) (25 µM, second data set (c53-c74)): 129 Miller units and 111 Miller units
β-galactosidase activity, individual replicate (50 µM hormone): 161 Miller units and 150 Miller units
β-galactosidase activity, Miller units (single replicate) (50 µM, first data set (c15-c36)): 237 Miller units and 229 Miller units and 224 Miller units and 225 Miller units
β-galactosidase activity, Miller units (single replicate) (50 µM, second data set (c53-c74)): 118 Miller units and 110 Miller units
β-galactosidase activity, Miller units (single replicate) (100 µM, first data set (c15-c36)): 228 Miller units and 230 Miller units and 281 Miller units and 254 Miller units
β-galactosidase activity, Mean [1]: 60 Miller units
β-galactosidase activity, single replicate [1]: 66 Miller units and 62 Miller units and 61 Miller units and 50 Miller units
β-galactosidase activity, Mean [2]: 68 Miller units
β-galactosidase activity, single replicate [2]: 65 Miller units and 76 Miller units and 70 Miller units and 59 Miller units
β-galactosidase activity, Mean [3]: 80 Miller units
β-galactosidase activity, single replicate [3]: 70 Miller units and 77 Miller units and 92 Miller units and 80 Miller units
β-galactosidase activity, Mean [4]: 83 Miller units
β-galactosidase activity, single replicate [4]: 89 Miller units and 78 Miller units and 94 Miller units and 70 Miller units
Miller units (plate rows 1-4, plate columns 1-6 (first strain), 6.25 µM hormone): 96 Miller units and 59 Miller units and 65 Miller units and 57 Miller units
Miller units (plate rows 1-4, plate columns 1-6 (first strain), 12.5 µM hormone): 116 Miller units and 66 Miller units and 73 Miller units and 70 Miller units
Miller units (plate rows 1-4, plate columns 1-6 (first strain), 25 µM hormone): 132 Miller units and 102 Miller units and 83 Miller units and 75 Miller units
Miller units (plate rows 1-4, plate columns 1-6 (first strain), 50 µM hormone): 147 Miller units and 111 Miller units and 107 Miller units and 103 Miller units
Miller units (plate rows 1-4, plate columns 7-12 (second strain), 6.25 µM hormone): 119 Miller units and 100 Miller units and 89 Miller units and 76 Miller units
Miller units (plate rows 1-4, plate columns 7-12 (second strain), 12.5 µM hormone): 126 Miller units and 101 Miller units and 100 Miller units and 81 Miller units
Miller units (plate rows 1-4, plate columns 7-12 (second strain), 25 µM hormone): 155 Miller units and 122 Miller units and 93 Miller units and 79 Miller units
Miller units (plate rows 1-4, plate columns 7-12 (second strain), 50 µM hormone): 151 Miller units and 132 Miller units and 101 Miller units and 93 Miller units
β-galactosidase activity, mtrC-lacZ, Mean (strain WT (FA19/pLES94-mtrC), hormone 6.25 µM): 141 Miller units
β-galactosidase activity, mtrC-lacZ, Mean (strain WT (FA19/pLES94-mtrC), hormone 12.5 µM): 166 Miller units
β-galactosidase activity, mtrC-lacZ, Mean (strain WT (FA19/pLES94-mtrC), hormone 25 µM): 178 Miller units
β-galactosidase activity, mtrC-lacZ, Mean (strain WT (FA19/pLES94-mtrC), hormone 50 µM): 195 Miller units
mtrC-lacZ β-galactosidase activity, Mean (strain WT, 1 µM hormone): 138 Miller units
β-galactosidase activity, Mean (strain WT, 6.25 µM hormone, second (right) untitled block of sheet Figure S10 (mtrC)): 81 Miller units
mtrC-lacZ β-galactosidase activity, Mean (strain WT, 10 µM hormone): 235 Miller units
mtrC-lacZ β-galactosidase activity, Mean (strain WT, 25 µM hormone): 264 Miller units
β-galactosidase activity, Mean (strain WT, 25 µM hormone, second (right) untitled block of sheet Figure S10 (mtrC)): 130 Miller units
mtrC-lacZ β-galactosidase activity, Mean (strain WT, 50 µM hormone): 229 Miller units
β-galactosidase activity, Mean (strain WT, 50 µM hormone, second (right) untitled block of sheet Figure S10 (mtrC)): 134 Miller units
mtrC-lacZ β-galactosidase activity, Mean (strain WT, 100 µM hormone): 248 Miller units
activation of mtrC (strain producing MtrR R176E): significantly less activation
β-galactosidase activity, mtrC-lacZ, Mean (strain ΔmtrR (FA19 ∆mtrR/pLES94-mtrC), hormone 6.25 µM): 265 Miller units
β-galactosidase activity, mtrC-lacZ, Mean (strain ΔmtrR (FA19 ∆mtrR/pLES94-mtrC), hormone 12.5 µM): 244 Miller units
β-galactosidase activity, mtrC-lacZ, Mean (strain ΔmtrR (FA19 ∆mtrR/pLES94-mtrC), hormone 25 µM): 276 Miller units
β-galactosidase activity, mtrC-lacZ, Mean (strain ΔmtrR (FA19 ∆mtrR/pLES94-mtrC), hormone 50 µM): 272 Miller units
β-galactosidase activity, mtrC-lacZ, Mean (strain ΔmtrR + mtrR D171A (pGCC3-mtrR D171A), hormone 6.25 µM): 170 Miller units
β-galactosidase activity, mtrC-lacZ, Mean (strain ΔmtrR + mtrR D171A (pGCC3-mtrR D171A), hormone 12.5 µM): 175 Miller units
β-galactosidase activity, mtrC-lacZ, Mean (strain ΔmtrR + mtrR D171A (pGCC3-mtrR D171A), hormone 25 µM): 170 Miller units
β-galactosidase activity, mtrC-lacZ, Mean (strain ΔmtrR + mtrR D171A (pGCC3-mtrR D171A), hormone 50 µM): 162 Miller units
mtrC-lacZ β-galactosidase activity, Mean (strain ΔmtrR + mtrR R176E, 1 µM hormone): 178 Miller units
β-galactosidase activity, Mean (strain ΔmtrR + mtrR R176E, 6.25 µM hormone, second (right) untitled block of sheet Figure S10 (mtrC)): 60 Miller units
mtrC-lacZ β-galactosidase activity, Mean (strain ΔmtrR + mtrR R176E, 10 µM hormone): 206 Miller units
β-galactosidase activity, Mean (strain ΔmtrR + mtrR R176E, 12.5 µM hormone, second (right) untitled block of sheet Figure S10 (mtrC)): 68 Miller units
β-galactosidase activity, Mean (strain ΔmtrR + mtrR R176E, 25 µM hormone, second (right) untitled block of sheet Figure S10 (mtrC)): 80 Miller units
